Measured values taken from US20230123334A1, “AMINO LIPID COMPOUND, PREPARATION METHOD THEREFOR, AND APPLICATION THEREOF” (SHENZHEN SHENXIN BIOTECHNOLOGY CO., LTD., priority 2020, published 2023).

System: Hela cells
Test: Transfection of Hela cell line, DNA vectors
Assay type: cell-based
Conditions: 75 ng plasmid DNA, GFP cells / total cells
Method in brief: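 Amino lipid/DOPE liposomes in sodium acetate pH 5.6 were complexed with 75 ng psin-EGFP-IRES-Puro plasmid for 30 min at room temperature, then mixed with 3-5×10^4 Hela cells in DMEM/10% FBS at 37° C. Hoechst stain after 20-24 h, imaging after a further 20-24 h. Efficiency = GFP-positive cells / total nuclei.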

| Structure (SMILES) | Absolute DNA transfection efficiency in Hela cells [%] |
| --- | --- |
| CCCCCCCCCCCSc1nc(NCC2CCN(C)CC2)nc(SCCCCCCCC)n1 [Compound S8S11D10] | 21.8 |
| CCCCCCCCCCCCSc1nc(NCCN2CCCC2)nc(SCCCCCCCC)n1 [Compound S8S12D3] | 5.5 |
| CCCCCCCCCCCCSc1nc(NCCN2CCN(C)CC2)nc(SCCCCCCCC)n1 [Compound S8S12D5] | 12.4 |
| CCCCCCCCCCCCSc1nc(NCCCN(C)C)nc(SCCCCCCCC)n1 [Compound S8S12D6] | 6.3 |
| CCCCCCCCCCCCSc1nc(NCCCN2CCOCC2)nc(SCCCCCCCC)n1 [Compound S8S12D8] | 17.2 |

System: Hela cells
Test: Transfection of Hela cell line, mRNA vectors
Assay type: cell-based
Conditions: 50 ng EGFP mRNA per well
Method in brief: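 Transfection efficiency was scored as GFP-fluorescent cells over Hoechst-stained total nuclei, with Lipofectamine2000 as reference reagent. Each well of HeLa cells, grown in DMEM plus 10% FBS, received 50 ng EGFP mRNA.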

| Structure (SMILES) | Absolute mRNA transfection efficiency in Hela cells [%] |
| --- | --- |
| CCCCCCCCCCCSc1nc(NCC2CCN(C)CC2)nc(SCCCCCCCC)n1 [Compound S8S11D10] | 21.8 |
| CCCCCCCCCCCCSc1nc(NCCN2CCCC2)nc(SCCCCCCCC)n1 [Compound S8S12D3] | 5.5 |
| CCCCCCCCCCCCSc1nc(NCCN2CCN(C)CC2)nc(SCCCCCCCC)n1 [Compound S8S12D5] | 12.4 |
| CCCCCCCCCCCCSc1nc(NCCCN(C)C)nc(SCCCCCCCC)n1 [Compound S8S12D6] | 6.3 |
| CCCCCCCCCCCCSc1nc(NCCCN2CCOCC2)nc(SCCCCCCCC)n1 [Compound S8S12D8] | 17.2 |

System: MCF7 cells
Test: Transfection of MCF7 cell line, DNA vectors
Assay type: cell-based
Design: concentration or dose not given beside the values
Conditions: plasmid DNA, GFP cells / total cells
Method in brief: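 Read-out: GFP-positive cells as % of all Hoechst-stained nuclei after 96-well transfection of MCF7 cells grown in serum-supplemented DMEM. Positive control was Lipofectamine2000, used per manufacturer's protocol.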

| Structure (SMILES) | Absolute DNA transfection efficiency in MCF7 cells [%] |
| --- | --- |
| CCCCCCCCCCCSc1nc(NCC2CCN(C)CC2)nc(SCCCCCCCC)n1 [Compound S8S11D10] | 37.2 |
| CCCCCCCCCCCCSc1nc(NCCN2CCCC2)nc(SCCCCCCCC)n1 [Compound S8S12D3] | 1.9 |
| CCCCCCCCCCCCSc1nc(NCCN2CCN(C)CC2)nc(SCCCCCCCC)n1 [Compound S8S12D5] | 26.3 |
| CCCCCCCCCCCCSc1nc(NCCCN(C)C)nc(SCCCCCCCC)n1 [Compound S8S12D6] | 34.4 |
| CCCCCCCCCCCCSc1nc(NCCCN2CCOCC2)nc(SCCCCCCCC)n1 [Compound S8S12D8] | 37.7 |

System: MCF7 cells
Test: Transfection of MCF7 cell line, mRNA vectors
Assay type: cell-based
Conditions: 50 ng EGFP mRNA per well
Method in brief: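 Efficiency was scored as the fraction of GFP-fluorescent cells over all Hoechst-counted cells after delivery of 50 ng EGFP mRNA per well. Cells were MCF7 grown in serum-supplemented DMEM, and Lipofectamine2000 served as reference.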

| Structure (SMILES) | Absolute mRNA transfection efficiency in MCF7 cells [%] |
| --- | --- |
| CCCCCCCCCCCSc1nc(NCC2CCN(C)CC2)nc(SCCCCCCCC)n1 [Compound S8S11D10] | 40.4 |
| CCCCCCCCCCCCSc1nc(NCCN2CCCC2)nc(SCCCCCCCC)n1 [Compound S8S12D3] | 6.7 |
| CCCCCCCCCCCCSc1nc(NCCN2CCN(C)CC2)nc(SCCCCCCCC)n1 [Compound S8S12D5] | 32.6 |
| CCCCCCCCCCCCSc1nc(NCCCN(C)C)nc(SCCCCCCCC)n1 [Compound S8S12D6] | 50.0 |
| CCCCCCCCCCCCSc1nc(NCCCN2CCOCC2)nc(SCCCCCCCC)n1 [Compound S8S12D8] | 14.0 |

System: embryonic stem cells (hESC2)
Test: Screening as DNA vectors in embryonic stem cells, flow cytometry
Assay type: cell-based
Conditions: 75 ng plasmid DNA, 48 hours after transfection, flow cytometer
Description: (§1) Cell line: embryonic stem cells (hESC2, cultured according to reported methods: Stem Cells, 2005, 23, 544-549)
(§2) Medium: mTeSR1 (STEMCELL)
(§3) Mode of screening: cell transfection on 96-well plates
(§4) Detection (readout): percentage of the number of GFP fluorescent cells relative to the total number of cells. Lipofectamine Stem was used as the positive control.
Method: an 8-channel pipette was used for sample addition. The contents shown were for a single well of a 96-well flat plate.
1. Stem cells were cultured to 3-5×10^4 cells per well in a 96-well plate treated with matrigel.
2. The compound (0.01 mmol) prepared in Example 1 was dissolved in 1 mL of anhydrous ethanol. After ultrasonically dissolved, 10 μL of the resultant amino lipid solution in ethanol was taken and mixed with 5 μL of DOPE solution in ethanol ([…]). The obtained mixture was then added with 35 μL of 0.2 M sodium acetate buffer (pH 5.6), and vortexed at a constant rotating speed for 30 s. Then, 4 μL was taken from the obtained product and added to 46 μL of 0.02 M sodium acetate buffer (pH 5.6), and vortexed at a constant rotating speed for 30 s to form a liposome solution. 5 μL of this liposome solution was mixed with 75 ng of plasmid DNA (pSin-EGFP-IRES-Puro) dissolved in 5 μL of 0.02 M sodium acetate buffer, and allowed to stay at room temperature for 30 min to form a lipid/DNA transfection complex.
3. 10 μL of the lipid/DNA transfection complex was incubated at room temperature for 30 min, followed by addition of 90 μL mTeSR1 medium was added and mixing with a pipette. 100 μL of the mixture was added to separate wells of a 96-well culture plate and placed in an incubator containing 5% CO2 at 37° C.
4. 48 hours after transfection, the cells were digested with 0.05% Trypsin-EDTA. The cells were resuspended in a PBS buffer and filtered. The cell suspension was placed in a flow cytometer and the number of GFP-expressing cells in no less than 2000 cells was measured so as to obtain the absolute efficiency of cell transfection. The relative efficiency of cell transfection was obtained by comparing the cell transfection efficiency with the positive control Lipofectamine Stem.

| Structure (SMILES) | Absolute DNA transfection efficiency in embryonic stem cells [%] |
| --- | --- |
| CCCCCCCCCCCSc1nc(NCC2CCN(C)CC2)nc(SCCCCCCCC)n1 [Compound S8S11D10] | 0.7 |
| CCCCCCCCCCCCSc1nc(NCCN2CCCC2)nc(SCCCCCCCC)n1 [Compound S8S12D3] | 1.5 |
| CCCCCCCCCCCCSc1nc(NCCN2CCN(C)CC2)nc(SCCCCCCCC)n1 [Compound S8S12D5] | 1.7 |
| CCCCCCCCCCCCSc1nc(NCCCN(C)C)nc(SCCCCCCCC)n1 [Compound S8S12D6] | 3.3 |
| CCCCCCCCCCCCSc1nc(NCCCN2CCOCC2)nc(SCCCCCCCC)n1 [Compound S8S12D8] | 5.9 |

System: embryonic stem cells (hESC2)
Test: Screening as mRNA vectors in embryonic stem cells
Assay type: cell-based
Conditions: 50 ng EGFP mRNA per well
Method: as §1, §2
Mode of screening: cell transfection on 96-well plate
as §4
Method: the experimental method was basically the same with Example 10, and the mass of EGFP mRNA for transfection was 50 ng per well.

| Structure (SMILES) | Absolute mRNA transfection efficiency in embryonic stem cells [%] |
| --- | --- |
| CCCCCCCCCCCSc1nc(NCC2CCN(C)CC2)nc(SCCCCCCCC)n1 [Compound S8S11D10] | 37.4 |
| CCCCCCCCCCCCSc1nc(NCCN2CCCC2)nc(SCCCCCCCC)n1 [Compound S8S12D3] | 17.9 |
| CCCCCCCCCCCCSc1nc(NCCN2CCN(C)CC2)nc(SCCCCCCCC)n1 [Compound S8S12D5] | 24.9 |
| CCCCCCCCCCCCSc1nc(NCCCN(C)C)nc(SCCCCCCCC)n1 [Compound S8S12D6] | 7.1 |
| CCCCCCCCCCCCSc1nc(NCCCN2CCOCC2)nc(SCCCCCCCC)n1 [Compound S8S12D8] | 0.7 |

System: cardiomyocytes
Test: Screening as DNA vectors in cardiomyocytes
Assay type: cell-based
Design: concentration or dose not given beside the values
Conditions: method as Example 4
Method: Cell line: cardiomyocytes (obtained from induced differentiation of hESC according to reported methods: J. Mol. Cell. Cardiol. 2011, 51, 288-298)
(§5) Medium: DMEM supplemented with 10% fetal bovine serum (Invitrogen)
as §3
(§6) Detection (readout): percentage of the number of GFP fluorescent cells relative to the total number of cells (the total number of cells was determined using nucleus dye Hoechst). Lipofectamine Stem (Invitrogen) was used as the positive control, according to the manufacturer's instructions.
Method: the experimental method was basically the same with Example 4.

| Structure (SMILES) | Absolute DNA transfection efficiency in cardiomyocytes [%] |
| --- | --- |
| CCCCCCCCCCCSc1nc(NCC2CCN(C)CC2)nc(SCCCCCCCC)n1 [Compound S8S11D10] | 1.4 |
| CCCCCCCCCCCCSc1nc(NCCN2CCCC2)nc(SCCCCCCCC)n1 [Compound S8S12D3] | 0.3 |
| CCCCCCCCCCCCSc1nc(NCCN2CCN(C)CC2)nc(SCCCCCCCC)n1 [Compound S8S12D5] | 2.4 |
| CCCCCCCCCCCCSc1nc(NCCCN(C)C)nc(SCCCCCCCC)n1 [Compound S8S12D6] | 1.6 |
| CCCCCCCCCCCCSc1nc(NCCCN2CCOCC2)nc(SCCCCCCCC)n1 [Compound S8S12D8] | 1.9 |

System: cardiomyocytes
Test: Screening as mRNA vectors in cardiomyocytes
Assay type: cell-based
Conditions: 50 ng EGFP mRNA per well
Method: Cell line: cardiomyocytes (obtained from induced differentiation of hESC according to reported methods: J Mol. Cell. Cardiol. 2011, 51, 288-298)
as §5, §3, §6
Method: the experimental method was basically the same with Example 4, and the mass of EGFP mRNA for transfection was 50 ng per well.

| Structure (SMILES) | Absolute mRNA transfection efficiency in cardiomyocytes [%] |
| --- | --- |
| CCCCCCCCCCCSc1nc(NCC2CCN(C)CC2)nc(SCCCCCCCC)n1 [Compound S8S11D10] | 20.8 |
| CCCCCCCCCCCCSc1nc(NCCN2CCCC2)nc(SCCCCCCCC)n1 [Compound S8S12D3] | 36.7 |
| CCCCCCCCCCCCSc1nc(NCCN2CCN(C)CC2)nc(SCCCCCCCC)n1 [Compound S8S12D5] | 2.5 |
| CCCCCCCCCCCCSc1nc(NCCCN(C)C)nc(SCCCCCCCC)n1 [Compound S8S12D6] | 44.9 |
| CCCCCCCCCCCCSc1nc(NCCCN2CCOCC2)nc(SCCCCCCCC)n1 [Compound S8S12D8] | 0.7 |
